From ChEMBL document CHEMBL4359923, “One-step Heck Reaction Generates Nonimmunosuppressive FK506 Analogs for Pharmacological BMP Activation” (ACS Med Chem Lett, 2019) come the findings set out here.

Data set [1] relates to HUVEC. Nature of the data set: Cytotoxicity against human HUVEC cells assessed as inhibition of cell growth at 1 to 10 uM measured after 72 hrs by resazurin dye based assay. On the technique in general: Alamar Blue is a resazurin reagent that responds to reducing activity.
Data set [2] concerns the target T1, Peptidyl-prolyl cis-trans isomerase FKBP1A (Homo sapiens, UniProt P62942). The data set is described as follows: Inhibition of FKBP12-mediated calcineurin activation in PMA/ionomycin stimulated human Jurkat cells transfected with NFAT-Luc assessed as reduction in NFAT reporter activity at 1 uM pretreated for 30 mins prior to PMA/ionomycin activation measured after 6 hrs by luciferase reporter assay. It is filed as cell-based. For orientation: Reporter assays use an easily measured gene product as a stand-in for the process of interest.

The target in data set [3] is T1, Peptidyl-prolyl cis-trans isomerase FKBP1A. Nature of the data set: Activation of FKBP12-mediated BMP signaling pathway in human Jurkat cells transfected with BRE-Luc at 1 nM to 1 uM measured after 18 hrs by luciferase reporter assay. It is filed as cell-based.
Data set [4] has the same target. The data set is described as follows: Inhibition of FKBP12-mediated calcineurin activation in PMA/ionomycin stimulated human Jurkat cells transfected with NFAT-Luc assessed as NFAT reporter activity up to 10 uM pretreated for 30 mins prior to PMA/ionomycin activation measured after 6 hrs by luciferase reporter assay. It is filed as cell-based.
The target is the same in data set [5]. The data set is described as follows: Induction of FKBP12-mediated SMAD1/5 phosphorylation in human Jurkat cells measured after 2 hrs by Western blot analysis. It is filed as cell-based. On the technique in general: Immunoblotting shows a protein as a band on a membrane.
Data set [6] has as its system HUVEC. The data set is described as follows: Cytotoxicity against human HUVEC cells assessed as inhibition of cell growth at 10 uM measured after 72 hrs by resazurin dye based assay.

Activity calls are given as the source filed them. The calls are words filed in the database; no cut-off is given here.

T1 sequence (P62942 whole entry): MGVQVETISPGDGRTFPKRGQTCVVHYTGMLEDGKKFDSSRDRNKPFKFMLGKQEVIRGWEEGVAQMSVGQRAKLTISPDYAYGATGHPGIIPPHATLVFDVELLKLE

Take `CO[C@H]1C[C@@H](C)C/C(C)=C/[C@@H](C/C=C/c2cccc(N)c2)C(=O)C[C@H](O)[C@@H](C)[C@@H](/C(C)=C/[C@@H]2CC[C@@H](O)[C@H](OC)C2)OC(=O)[C@@H]2CCCCN2C(=O)C(=O)[C@]2(O)O[C@H]1[C@@H](OC)C[C@H]2C`: in the data set with HUVEC [1], the Activity entry is “Toxic”. Moreover, the “inhibition (INH)” value in data set [2] is given as “Active”. For the same compound, the outcome in data set [3] was Active.

`CO[C@H]1C[C@@H](C)C/C(C)=C/[C@@H](C/C=C/c2ccncc2)C(=O)C[C@H](O)[C@@H](C)[C@@H](/C(C)=C/[C@@H]2CC[C@@H](O)[C@H](OC)C2)OC(=O)[C@@H]2CCCCN2C(=O)C(=O)[C@]2(O)O[C@H]1[C@@H](OC)C[C@H]2C`: the figures for the Activity result (in the data set with HUVEC [1]; in data set [5]) were “Toxic” and “Dose-dependent effect”, respectively. Also, in data set [4], the “inhibition (INH)” value is “Not Active”. In addition, the outcome in data set [3] was Active.

Consider `CO[C@H]1C[C@@H](C)C/C(C)=C/[C@@H](C/C=C/c2ccccc2N)C(=O)C[C@H](O)[C@@H](C)[C@@H](/C(C)=C/[C@@H]2CC[C@@H](O)[C@H](OC)C2)OC(=O)[C@@H]2CCCCN2C(=O)C(=O)[C@]2(O)O[C@H]1[C@@H](OC)C[C@H]2C`, for which the Activity entry in the data set on HUVEC [1] is listed as “Toxic”. For the same compound, the “inhibition (INH)” value in data set [2] is on record as “Active”. Besides, the result in data set [3] was Active.

With `CO[C@H]1C[C@@H](C)C/C(C)=C/[C@@H](C/C=C/c2ccnc3cc(F)ccc23)C(=O)C[C@H](O)[C@@H](C)[C@@H](/C(C)=C/[C@@H]2CC[C@@H](O)[C@H](OC)C2)OC(=O)[C@@H]2CCCCN2C(=O)C(=O)[C@]2(O)O[C@H]1[C@@H](OC)C[C@H]2C`, the “inhibition (INH)” value in data set [2] is listed as “Active”. The result in data set [3] was Active. For the same compound, the Activity result with HUVEC [6] is recorded as “Toxic”.

For the compound `CO[C@H]1C[C@@H](C)C/C(C)=C/[C@@H](C/C=C/c2ccncc2N)C(=O)C[C@H](O)[C@@H](C)[C@@H](/C(C)=C/[C@@H]2CC[C@@H](O)[C@H](OC)C2)OC(=O)[C@@H]2CCCCN2C(=O)C(=O)[C@]2(O)O[C@H]1[C@@H](OC)C[C@H]2C`, the Activity result was “Toxic” in the data set on HUVEC [1] and “Dose-dependent effect” in data set [5]. The “inhibition (INH)” value in data set [4] is “Not Active”. The outcome in data set [3] was Active.

For the compound `CO[C@H]1C[C@@H](C)C/C(C)=C/[C@@H](C/C=C/c2ccncc2F)C(=O)C[C@H](O)[C@@H](C)[C@@H](/C(C)=C/[C@@H]2CC[C@@H](O)[C@H](OC)C2)OC(=O)[C@@H]2CCCCN2C(=O)C(=O)[C@]2(O)O[C@H]1[C@@H](OC)C[C@H]2C`, the Activity entry in the data set on HUVEC [1] is reported as “Toxic”. For the same compound, the “inhibition (INH)” value in data set [2] is reported as “Active”. Moreover, the result in data set [3] was Active.

Take `CO[C@H]1C[C@@H](C)C/C(C)=C/[C@@H](C/C=C/c2ccnc3c(F)c(F)ccc23)C(=O)C[C@H](O)[C@@H](C)[C@@H](/C(C)=C/[C@@H]2CC[C@@H](O)[C@H](OC)C2)OC(=O)[C@@H]2CCCCN2C(=O)C(=O)[C@]2(O)O[C@H]1[C@@H](OC)C[C@H]2C`: the “inhibition (INH)” value in data set [2] is listed as “Active”. In data set [3], the result was Active. Also, the Activity entry with HUVEC [6] is given as “Toxic”.

As for `C=CC[C@@H]1/C=C(\C)C[C@H](C)C[C@H](OC)[C@H]2O[C@@](O)(C(=O)C(=O)N3CCCC[C@H]3C(=O)O[C@H](/C(C)=C/[C@@H]3CC[C@@H](O)[C@H](OC)C3)[C@H](C)[C@@H](O)CC1=O)[C@H](C)C[C@@H]2OC` [TACROLIMUS ANHYDROUS], the Activity result with HUVEC [1] is “Toxic”; in data set [5], “Dose-dependent effect”. Also, the “inhibition (INH)” value in data set [2] is reported as “Active”. Further, the outcome in data set [3] was Active.

On to `CO[C@H]1C[C@@H](C)C/C(C)=C/[C@@H](C/C=C/c2ccnc(N)c2)C(=O)C[C@H](O)[C@@H](C)[C@@H](/C(C)=C/[C@@H]2CC[C@@H](O)[C@H](OC)C2)OC(=O)[C@@H]2CCCCN2C(=O)C(=O)[C@]2(O)O[C@H]1[C@@H](OC)C[C@H]2C`, for which the Activity result with HUVEC [1] is “Toxic”; in data set [5] it was “Dose-dependent effect”. Further, the “inhibition (INH)” value in data set [4] is recorded as “Not Active”. In addition, in data set [3], the result was Active.

For `CO[C@H]1C[C@@H](C)C/C(C)=C/[C@@H](C/C=C/c2ccnc3ccccc23)C(=O)C[C@H](O)[C@@H](C)[C@@H](/C(C)=C/[C@@H]2CC[C@@H](O)[C@H](OC)C2)OC(=O)[C@@H]2CCCCN2C(=O)C(=O)[C@]2(O)O[C@H]1[C@@H](OC)C[C@H]2C`, the “inhibition (INH)” value in data set [2] is on record as “Active”. The result in data set [3] was Active. Also, the Activity entry with HUVEC [6] was “Toxic”.

In the case of `CO[C@H]1C[C@@H](C)C/C(C)=C/[C@@H](C/C=C/c2ccc(N)cc2)C(=O)C[C@H](O)[C@@H](C)[C@@H](/C(C)=C/[C@@H]2CC[C@@H](O)[C@H](OC)C2)OC(=O)[C@@H]2CCCCN2C(=O)C(=O)[C@]2(O)O[C@H]1[C@@H](OC)C[C@H]2C`, in the data set on HUVEC [1], the Activity entry is listed as “Toxic”. For the same compound, in data set [2], the “inhibition (INH)” value was “Active”. Besides, the outcome in data set [3] was Active.

`CNc1ccc(/C=C/C[C@@H]2/C=C(\C)C[C@H](C)C[C@H](OC)[C@H]3O[C@@](O)(C(=O)C(=O)N4CCCC[C@H]4C(=O)O[C@H](/C(C)=C/[C@@H]4CC[C@@H](O)[C@H](OC)C4)[C@H](C)[C@@H](O)CC2=O)[C@H](C)C[C@@H]3OC)cc1`: the Activity result in the data set on HUVEC [1] is recorded as “Toxic”. For the same compound, the “inhibition (INH)” value in data set [2] is reported as “Active”. In addition, in data set [3], the result was Active.
